Results from patent US20050203119A1, “Dihydropyridine compounds for treating or preventing metabolic disorders” (priority 2003, published 2005).

What was measured:
Male SD rats = details: rat, in vivo
Protocol: Male SD rats weighing 350-420 g were anesthetized with 2-3% isoflurane. The femoral artery and vein were catheterized and connected to a mean arterial blood pressure (MAP) and heart rate (HR) monitor and a continuous intravenous infusion pump. Under anesthesia, MAP and HR were recorded 10-20 minutes prior to and during the continuous intravenous infusion of test compounds for 60-70 minutes. The infusion rate, 0.14-0.16 ml/kg/minute, was determined on the basis of vehicle tolerance. The infusion doses, 1.0-1.25 mg/kg/minute, were selected, depending upon the solubility of the compound and effects on MAP and HR of the positive control compounds at the lethal dose. The maximal effective dose or lethal dose of test compounds were determined accordingly.

[1] = test system: NIDDM male mice (C57BLKS/J-m+/+Lepr db); assay: Glucose reduction in db/db mouse model, oral once daily for 7 days (Example 111); type: in vivo; details: for Serum Glucose % Pre-Treatment Baseline: 90 min post-dosing
Protocol: Non-insulin dependent diabetic mellitus (NIDDM) male mice (C57BLKS/J-m+/+Lepr db) weighing 60±5 g (12 weeks of age) provided by the Institute for Animal Reproduction (IAR, Japan) were used. […] The animals were housed in Individually Ventilated Cages Racks (IVC Racks, 36 Mini Isolator systems) throughout the experiment. Each APEC cage was autoclave sterilized and contained 4 mice and then maintained in a hygienic environment under controlled temperature (22-24° C.) and humidity (60-70%) with 12-hour light/dark cycles. The animals were given sterilized lab Chow and sterilized distilled water ad libitum.
Sterilized distilled water, ELISA Insulin Assay Kit (SPI bio, France), glucose (Merck), Glucose-HA assay kit (Wako, Japan), methylcellulose (Sigma), and troglitazone (BioMOL).
Compound 1 was suspended in 0.5% methylcellulose. Compound 1 at 100, 50 and 30 mg/kg as well as vehicle were administered to NIDDM male mice weighing 60±5 g (11-12 weeks of age), orally once daily for 7 consecutive days starting immediately after the first blood sampling (pre-treatment on day 1). Blood sampling was repeated at 90 minutes post-dosing on day 3 and day 7. The dosing volume was 10 ml/kg. Serum glucose level in the pre- and post-treatment periods were determined by enzymatic (Mutaratase-GOD) method. Post-treatment serum glucose value expressed in percentage of respective pre-treatment values were calculated and unpaired Student's t test was then applied for comparison between compound treated and vehicle control groups. Differences were considered significant at P<0.05. In addition, the liver weight and body weight were recorded to determine the ratio of liver to body weight.

[2] = test system: C57BLKS/J db/db male mice; assay: Glucose reduction, Compound 1 in combination with rosiglitazone, db/db mice (Example 116, FIG. 2); type: in vivo, mouse; details: Compound 1 alone, 50 mg/kg
[3] = test system: obese diabetic mice (C57BL/6 ob/ob); assay: Glucose reduction in ob/ob mouse model (Example 113); type: in vivo; details: 3.5 hours after administration
Protocol: Genetically mutated obese diabetic mice (C57BL/6 ob/ob) were purchased from the Jackson Laboratory (Bar Harbor, Me.). Eight weeks old male animals were employed in this study. After acclimation, mice were randomized for equivalent mean blood glucose on day 0 with eight mice each group, and received either vehicle or Compound 1 in 0.5% methylcellulose (ps400) by oral gavage once daily for 8 consecutive days. Plasma glucose was monitored 3.5 hours after administration of test compound on day 3 and 8.

[4] = test system: C57BLKS/J db/db male mice; assay: Glucose, insulin and triglyceride reduction in db/db mouse model, 10 days (Example 115); type: in vivo; details: orally once daily for 10 days
Protocol: Compound 1 was evaluated for its effect on plasma glucose, triglyceride and insulin in C57BLKS/J db/db male mice.
Compound 1 or vehicle was administered orally once daily for 10 consecutive days. Animals were divided into either vehicle or treatment groups (n=8 per group), and blood glucose, serum triglyceride and insulin were tested at the end of assay by Ani Lytic Inc (Baltimore, Md.).

primary rat hepatocytes = assay: In vitro cytotoxicity study on primary rat hepatocytes (MTS); type: cell-based; details: Hepatocyte, 20 hours treatment with 0.4, 2, 10 and 50 μM, absorbance at 490 nm, read-out: Average EC50 (hepatocytes from at least 2 rats)
Protocol: Male SD rats having body weights of approximately 200 g were used for the study. Hepatocytes were freshly isolated and seeded with 15,000 cells/well in 96 wells coated with 100 μl collagen. The hepatocytes were cultured for 3-4 hours with HCM Bulletkit medium (Clonetics #CC-3198) then treated with 0.4 μM, 2 μM, 10 μM and 50 μM of a test compound for 20 hours. Flepatocytes were then incubated with MTS reagent (Promega #G5421) for 2-3 hours and absorbance in each well at […] was measured to determine the number of living cells in each well (the absorbance at 490 nm is directly proportional to the number of living cells in the well). The EC50 for each test compound was calculated with the Excel Xlfit wizard program based on the optical density values compared with vehicle treated cells.

[5] = test system: C57BLKS/J-m+/+Lepr db male animals; assay: Glucose reduction by Compound 9 in db/db mouse model (Example 112); type: in vivo; details: 3.5 hours after administration
Protocol: C57BLKS/J-m+/+Lepr db male animals (8 weeks old) were purchased from the Jackson Laboratory (Bar Harbor, Me.) in this study. All animals were acclimated for at least one week, and randomized for equivalent mean blood glucose on day 0. Animals were divided into either vehicle or treatment groups (n=8/group). Compound 9 was formulated in 0.5% methylcellulose (ps400) and administered by oral gavage at 50 mg/kg once daily for 7 consecutive days. Blood glucose was monitored using One Touch Basic glucose monitor (Abbott) 3.5 hours after administration of test compound on day 3 and 7.

C57BLKS/J-m+/+Lepr db = assay: Glucose reduction, Compound 36 in combination with rosiglitazone, db/db mice, 6 days (Example 117); type: in vivo, mouse; details: for Serum Glucose % Normalized Reduction: relative to vehicle
Protocol: C57BLKS/J-m+/+Lepr db were obtained from the Institute for Animal Reproduction (IAR, Japan), and randomized for equivalent mean blood glucose on day 0 (n=8/group). One group served as the vehicle control (0.5% methyl cellulose). […] Group 3 received 0.5 mg/kg rosiglitazone. […] All agents were administered once daily for 6 consecutive days starting on day 1. […] Post-treatment serum glucose value was expressed as percent pre-treatment from respective pre-treatment values, and percent reduction relative to vehicle control was calculated by subtracting from the percent pre-treatment of vehicle control.

male ob/ob mice = assay: Oral glucose tolerance test in glucose-loaded ob/ob mice (Example 114, FIG. 1); type: in vivo, mouse
Protocol: Blood glucose was measured at 0, 30, 120 and 240 min post-glucose loading. Metformin and rosiglitazone were used as references.

db/db mice = assay: Combination studies of rosiglitazone or metformin with Compound 39, 7 days (Example 121); type: in vivo, mouse
Protocol: Serum glucose levels in the pre-and post-treatment were determined enzymatically (Mutaratase-GOD). Post-treatment serum glucose values were expressed in percentage of respective pre-treatment values. Percentage reductions were expressed in percentage of pre-treatment values of test substance relative to percentage of respective pre-treatment values of vehicle. All percentages were calculated and unpaired; Student's t test was then applied to establish significant difference between the test compound-treated and vehicle control groups. Differences are considered significant at P<0.05.

[6] = test system: male db/db mice (BKS.Cg-m+/+Lepr db/J); assay: Intraperitoneal glucose tolerance test (IPGTT) in db/db mice (Example 122, FIGS. 3 and 5); type: in vivo, mouse; details: Mus musculus, po, 0.75 h, read-out: Ave. % Change in Glucose Intolerance at +45 min
Protocol: Six to eight week old, male db/db mice (BKS.Cg-m+/+Lepr^db/J; stock number 000642), homozygous for a mutation in the gene encoding the leptin receptor, were purchased from The Jackson Laboratory (Bar Harbor, Me. USA). Animals were singly housed in conventional caging on a 12 hr/12 hr light/dark cycle, acclimated for at least five days prior to use and fed normal laboratory chow ad libitum between experiments. Studies were conducted with animals between seven and fourteen weeks of age. Animals were used for a maximum of five consecutive studies, with a minimum recovery period of five days between studies.
To perform an IPGTT or OGTT, db/db mice were fasted overnight beginning on day 0 at −17.5 to −18.5 hrs relative to the glucose dose on day 1 (all time points below are stated relative to the time of an intraperitoneal or oral glucose dose on day 1). At −4.5 hrs, animals were weighed, blood was collected by tail vein lancing and fasted blood glucose levels determined using a hand-held glucometer (MediSense Precision Xtra or LifeScan OneTouch Ultra). Animals were randomized into dosing groups of 6-7 animals, with each group having a similar average fasted blood glucose level. At −3 hr, animals were dosed with vehicle alone, a test compound or metformin by oral gavage at 5 ml/kg body weight. […] Blood glucose levels were determined as above at −45 min and +45 min, and also +90 min and/or +150 min (see FIG. 3 and the Table in this section). Alternatively, blood glucose levels were determined at −30 min, +30 min, +60 min and +120 min (see FIGS. 4 and 5).
Compound doses were adjusted to be the molar equivalents of 50 mg/kg of Compound 39. The percent change in blood glucose between −45 min and a time point, y, after glucose dosing (e.g., +45 min, +150 min, ect.) was calculated for each animal using formula 1: [formula]
The percent change in blood glucose between −45 min and a time point, y, after glucose dosing was calculated for each animal using formula 1.
Average percent change in glucose intolerance was calculated using Formula 2, as noted in the table below. […]

[7] = day 3, 50 mg/kg oral gavage once daily
[8] = Day 3, metformin 150 mg/kg orally daily
[9] = Day 7, metformin 150 mg/kg orally daily
[10] = Day 3, rosiglitazone 0.5 mg/kg orally daily
[11] = Day 7, rosiglitazone 0.5 mg/kg orally daily

Question: With `CCOC(=O)C1=C(COCCN)NC(C)=C(C(=O)OC)C1c1ccccc1Cl` (stereo not shown) [Amlodipine, amlodipine, reference compound] as the compound, how does the “Lethal Dose” value (Male SD rats) read?
Answer: Its value is “˜12.7 mg/kg”.

Question: What does the source list for `CCOC(=O)C1=C(COCCN)NC2=C(C(=O)CC(C)(C)C2)C1c1ccccc1Cl` (stereo not shown) [Compound 1, 2-(2-amino-ethoxymethyl)-4-(2-chloro-phenyl)-7,7-dimethyl-5-oxo-1,4,5,6,7,8-Hexahydro-quinoline-3-carboxylic acid ethyl ester]?
Answer: Serum Glucose % Pre-Treatment Baseline ([1]; Day 3, 30 mg/kg orally once daily): 96.7 ± 2.2 %; Serum Glucose % Pre-Treatment Baseline ([1]; Day 3, 50 mg/kg orally once daily): 86.5 ± 3.5 %; Serum Glucose % Pre-Treatment Baseline ([1]; Day 3, 100 mg/kg orally once daily): 85.6 ± 2.4 %; Serum Glucose % Pre-Treatment Baseline ([1]; Day 7, 30 mg/kg orally once daily): 91.6 ± 3.7%; Serum Glucose % Pre-Treatment Baseline ([1]; Day 7, 50 mg/kg orally once daily): 82.9 ± 4.4 %; Serum Glucose % Pre-Treatment Baseline ([1]; Day 7, 100 mg/kg orally once daily): 80.9 ± 3.3 %; liver weight relative to body weight ([1]; any treatment group (30, 50, 100 mg/kg, 7 days) vs vehicle control): No significant difference; Lethal Dose (Male SD rats): >70 mg/kg; blood glucose level, monotherapy [2]: reduced glucose levels; percent normalized reduction of serum glucose vs vehicle [3, 7]: 30%; percent normalized reduction of serum glucose vs vehicle ([3]; day 8, 50 mg/kg oral gavage once daily): 22.3%; % Reduction (relative to vehicle), Glucose [4]: 14%; % Reduction (relative to vehicle), Insulin [4]: 19%; % Reduction (relative to vehicle), Triglyceride [4]: 17%; Glucose ([4]; end of assay): 327.50 mg/dL; Insulin ([4]; end of assay): 11.32 ng/mL; Triglyceride ([4]; end of assay): 336.13 mg/dL

Question: Which results are given for `CCOC(=O)C1=C(COCCN)NC2=C(C(=O)CC(C)(C)C2)C1c1ccccn1` (stereo not shown) [Compound 9, 2-(2-amino-ethoxymethyl)-7,7-dimethyl-5-oxo-4-pyridin-2-yl-1,4,5,6,7,8-hexahydro-quinoline-3-carboxylic acid ethyl ester]?
Answer: EC50 (primary rat hepatocytes): > 50 µM; percent normalized reduction in blood glucose relative to vehicle control [5, 7]: 13.6%; percent normalized reduction in blood glucose relative to vehicle control ([5]; day 7, 50 mg/kg oral gavage once daily): 21.1%

Question: Which results are given for `CCOC(=O)C1=C(COCCN)NC2=C(C(=O)CC(C)(C)C2)[C@@H]1c1ccccc1Cl` [Compound 36, S-(−)-2-(2-amino-ethoxymethyl)-4-(2-chloro-phenyl)-7,7-dimethyl-5-oxo-1,4,5,6,7,8-hexahydro-quinoline-3-carboxylic acid ethyl ester; complex with benzenesulfonic acid]?
Answer: Serum Glucose % Pre-Treatment Baseline (C57BLKS/J-m+/+Lepr db; Day 3, Compound 36 10 mg/kg): 103.0 ± 2.4%; Serum Glucose % Normalized Reduction (C57BLKS/J-m+/+Lepr db; Day 3, Compound 36 10 mg/kg): (2.6) %; Serum Glucose % Pre-Treatment Baseline (C57BLKS/J-m+/+Lepr db; Day 3, Compound 36 25 mg/kg): 100.3 ± 2.8%; Serum Glucose % Normalized Reduction (C57BLKS/J-m+/+Lepr db; Day 3, Compound 36 25 mg/kg): (5.3) %; Serum Glucose % Pre-Treatment Baseline (C57BLKS/J-m+/+Lepr db; Day 6, Compound 36 10 mg/kg): 100.7 ± 4.6%; Serum Glucose % Normalized Reduction (C57BLKS/J-m+/+Lepr db; Day 6, Compound 36 10 mg/kg): (7.2) %; Serum Glucose % Pre-Treatment Baseline (C57BLKS/J-m+/+Lepr db; Day 6, Compound 36 25 mg/kg): 99.7 ± 5.4%; Serum Glucose % Normalized Reduction (C57BLKS/J-m+/+Lepr db; Day 6, Compound 36 25 mg/kg): (8.2) %; blood glucose after oral glucose loading (male ob/ob mice; 25 mg/kg orally, glucose 3 g/kg, fasted ob/ob mice): approximately 200 mg/dl

Question: What does the source list for `CN(C)C(=N)N=C(N)N` [metformin]?
Answer: Serum Glucose % Pre-Treatment Baseline (db/db mice; [8]): 68.5 ± 3.7%; serum glucose % Reduction relative to vehicle (db/db mice; [8]): (26.4) %; Serum Glucose % Pre-Treatment Baseline (db/db mice; [9]): 72.2 ± 5.7%; serum glucose % Reduction relative to vehicle (db/db mice; [9]): (28.7) %; blood glucose after oral glucose loading (male ob/ob mice; metformin 100 mg/kg (FIG. 1), glucose 3 g/kg, fasted ob/ob mice): approximately 200 mg/dl; change in vivo at 150 mg/kg [6]: -48.7%

Question: `CN(CCOc1ccc(CC2SC(=O)NC2=O)cc1)c1ccccn1` (stereo not shown) [rosiglitazone, reference compound] was tested. Which “Serum Glucose % Pre-Treatment Baseline” value (C57BLKS/J-m+/+Lepr db; Day 3, rosiglitazone 0.5 mg/kg) did it give?
Answer: Its value is 90.3 ± 3.1%.

Question: What about the “Serum Glucose % Normalized Reduction” value (C57BLKS/J-m+/+Lepr db; Day 3, rosiglitazone 0.5 mg/kg) of the same compound?
Answer: Its value is “(15.3) %”.

Question: And the “Serum Glucose % Pre-Treatment Baseline” value (C57BLKS/J-m+/+Lepr db; Day 6, rosiglitazone 0.5 mg/kg)?
Answer: The value was 79.1 ± 1.9%.

Question: And the “Serum Glucose % Normalized Reduction” value (C57BLKS/J-m+/+Lepr db; Day 6, rosiglitazone 0.5 mg/kg)?
Answer: The value was 28.8%.

Question: And the “Serum Glucose % Normalized Reduction” value (C57BLKS/J-m+/+Lepr db; Day 6, rosiglitazone 0.5 mg/kg, listed as Rosiglitazone)?
Answer: Its value is “(28.8) %”.

Question: And the “Serum Glucose % Pre-Treatment Baseline” value (db/db mice; [10])?
Answer: Its value is 72.2 ± 6.5%.

Question: And the “serum glucose % Reduction relative to vehicle” value (db/db mice; [10])?
Answer: Its value is “(22.4) %”.

Question: What about the “Serum Glucose % Pre-Treatment Baseline” value (db/db mice; [11]) of the same compound?
Answer: The value was 61.2 ± 6.6%.

Question: What about the “serum glucose % Reduction relative to vehicle” value (db/db mice; [11]) of the same compound?
Answer: Its value is “(39.5) %”.

Question: What about the “blood glucose after oral glucose loading” value (male ob/ob mice; rosiglitazone 1 mg/kg (FIG. 1), 4 hours post-glucose loading) of the same compound?
Answer: The value was roughly 300 mg/dL.
